Laboratory results from PMC8065100, “How cyanophage S-2L rejects adenine and incorporates 2-aminoadenine to saturate hydrogen bonding in its DNA” (Nature Communications, 2021).

Assays:
[1] = target: T1, DatZ (S-2L HD phosphohydrolase) (Cyanophage S-2L, UniProt A0A7U3TCA2); assay: X-ray crystal structure; hydrolysis to dA seen by HPLC; format: binding; conditions: crystals grown with 10 mM EDTA, pH 7; active site; partially occupied Zn2+ in site A; HPLC assay: 20 mM Tris pH 7, 5 mM MgCl2, 37 °C
T1 construct: full length 175 aa, synthetic codon-optimised gene, N-terminal 14-His tag removed by TEV, E. coli host, hexamer (D3)

[2] = target: S-2L DatZ (dATP triphosphohydrolase, HD-domain phosphohydrolase of cyanophage S-2L) (cyanophage S-2L); assay: AUC + other: DLS; in vitro; stoichiometry worked out assuming a perfectly globular shape; conditions not given

Row | Molecule | X-ray crystal structure; hydrolysis to dA seen by HPLC [1] | stoichiometry N (protomers per oligomer) [2]
1 | Nc1ncnc2c1ncn2[C@H]1C[C@H](O)[C@@H](COP(=O)(O)OP(=O)(O)OP(=O)(O)O)O1 [dATP] | we solved a third structure of DatZ, this time with bound dATP (PDB ID: 6ZPC | –
2 | S-2L DatZ (dATP triphosphohydrolase, HD-domain phosphohydrolase of cyanophage S-2L) (enzyme) | – | 5.9
